Test results from patent US20250382305A1 (PTC THERAPEUTICS, INC., priority 2022, published 2025).

Key:
[1] = tested on: Total ATXN3 (tATXN3) protein; assay: Endogenous Total ATXN3 (tATXN3) Protein Assay (MSD immunoassay of cell lysates); type: cell-based; settings: average IC50, total ATXN3 protein in cell lysate after 48 h with compound (Table 1)
Method in brief: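 By electrochemiluminescent MSD sandwich immunoassay (mouse monoclonal capture, rabbit monoclonal and SULFO-TAG anti-rabbit detection), endogenous ATXN3 was quantified in lysates of cells treated 48 h at 37° C at 10,000 cells/well. Treatment used a 7-point 3.16-fold duplicate dilution series, with average IC50 grouped into star categories.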

ATXN3 pre-mRNA = assay: RT-qPCR Assay to Quantify Exon 4 Skipping in ATXN3 pre-mRNA in Cells; type: cell-based; settings: percent exon 4 skipping in ATXN3 pre-mRNA, RT-qPCR of cell lysates; average IC50
Method in brief: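 IC50 derives from a dose-response fit of percent exon 4 skipping, quantified by RT-qPCR on crude lysates. Compounds tested as 7-point 3.16-fold dilutions in duplicate; cells (10,000/well) were exposed for 24 h at 37 °C before lysis.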

| Compound | IC50 [1] [nM] | IC50 (ATXN3 pre-mRNA) [nM] |
| --- | --- | --- |
| N[C@H]1CCCN(c2ccccc2)[C@@H]1c1sc2c(NCc3cccs3)cc(Cl)nc2c1Br (mixture of isomers) [Compound 124, 2-((2R,3R)-3-amino-1-phenylpiperidin-2-yl)-3-bromo-5-chloro-N-(thiophen-2-ylmethyl)thieno[3,2-b]pyridin-7-amine and 2-((2S,3S)-3-amino-1-phenylpiperidin-2-yl)-3-bromo-5-chloro-N-(thiophen-2-ylmethyl)thieno[3,2-b]pyridin-7-amine] | > 1000 | > 1000 |
| C#Cc1c([C@H]2CCCC[C@@H]2N)sc2c(NCc3ccccc3)cc(Cl)nc12 [Compound 210, 2-((1S,2S)-2-aminocyclohexyl)-N-benzyl-5-chloro-3-ethynylthieno[3,2-b]pyridin-7-amine] | ≤ 30 | ≤ 30 |
| N[C@H]1CCCC(F)(F)[C@@H]1c1sc2c(NCc3cccs3)cc(Cl)nc2c1Cl [Compound 291, 2-((1R,6S)-6-amino-2,2-difluorocyclohexyl)-3,5-dichloro-N-(thiophen-2-ylmethyl)thieno[3,2-b]pyridin-7-amine] | 30 to 300 | 30 to 300 |
| N[C@@H]1CCCC(F)(F)[C@@H]1c1sc2c(NCc3cccs3)cc(Cl)nc2c1Br.N[C@H]1CCCC(F)(F)[C@H]1c1sc2c(NCc3cccs3)cc(Cl)nc2c1Br (mixture of isomers) [Compound 359, 2-((1R,6R)-6-amino-2,2-difluorocyclohexyl)-3-bromo-5-chloro-N-(thiophen-2-ylmethyl)thieno[3,2-b]pyridin-7-amine and 2-((1S,6S)-6-amino-2,2-difluorocyclohexyl)-3-bromo-5-chloro-N-(thiophen-2-ylmethyl)thieno[3,2-b]pyridin-7-amine] | 30 to 300 | 30 to 300 |
| N[C@@H]1CCCC[C@H]1c1sc2c(NCc3cccs3)cc(Cl)nc2c1Br [Compound 54, 2-((1R,2R)-2-aminocyclohexyl)-3-bromo-5-chloro-N-(thiophen-2-ylmethyl)thieno[3,2-b]pyridin-7-amine] | 30 to 300 | 30 to 300 |
| 4-(2-((1R,6R)-6-aminocyclohex-3-en-1-yl)-5-chloro-7-((thiophen-2-ylmethyl)amino)thieno[3,2-b]pyridin-3-yl)but-3-yn-1-ol and 4-(2-((1S,6S)-6-aminocyclohex-3-en-1-yl)-5-chloro-7-((thiophen-2-ylmethyl)amino)thieno[3,2-b]pyridin-3-yl)but-3-yn-1-ol [Compound 177] | ≤ 30 | ≤ 30 |
| N#Cc1cc(NCc2ccco2)c2sc([C@H]3CC=CC[C@@H]3N)c(Cl)c2n1 [Compound 242, 2-((1S,6S)-6-aminocyclohex-3-en-1-yl)-3-chloro-7-((furan-2-ylmethyl)amino)thieno[3,2-b]pyridine-5-carbonitrile] | ≤ 30 | ≤ 30 |
| N[C@@H]1CC=CC[C@H]1c1c(I)c2nc(Cl)nc(NCc3ccco3)c2n1C(F)F [Compound 379, 6-((1R,6R)-6-aminocyclohex-3-en-1-yl)-2-chloro-5-(difluoromethyl)-N-(furan-2-ylmethyl)-7-iodo-5H-pyrrolo[3,2-d]pyrimidin-4-amine] | 30 to 300 | 30 to 300 |
| Cc1c([C@H]2CC=CC[C@@H]2N)sc2c(NCc3ccsc3)cc(Cl)nc12 [Compound 247, 2-((1S,6S)-6-aminocyclohex-3-en-1-yl)-5-chloro-3-methyl-N-(thiophen-3-ylmethyl)thieno[3,2-b]pyridin-7-amine] | 30 to 300 | 30 to 300 |
| 2-((1R,6R)-6-aminocyclohex-3-en-1-yl)-3-bromo-5-chloro-N-(cyclopent-1-en-1-ylmethyl)thieno[3,2-b]pyridin-7-amine and 2-((1S,6S)-6-aminocyclohex-3-en-1-yl)-3-bromo-5-chloro-N-(cyclopent-1-en-1-ylmethyl)thieno[3,2-b]pyridin-7-amine [Compound 332] | 30 to 300 | 30 to 300 |
| 2-((2R,3R)-3-amino-5-methylenetetrahydro-2H-pyran-2-yl)-3-bromo-5-chloro-N-(thiophen-2-ylmethyl)thieno[3,2-b]pyridin-7-amine and 2-((2S,3S)-3-amino-5-methylenetetrahydro-2H-pyran-2-yl)-3-bromo-5-chloro-N-(thiophen-2-ylmethyl)thieno[3,2-b]pyridin-7-amine [Compound 259] | 30 to 300 | 30 to 300 |
| Cc1c([C@@H]2CCC[C@H]2N)sc2c(NCc3cccs3)cc(Cl)nc12 [Compound 5, 2-((1R,2R)-2-aminocyclopentyl)-5-chloro-3-methyl-N-(thiophen-2-ylmethyl)thieno[3,2-b]pyridin-7-amine] | > 1000 | > 1000 |
| Cc1c([C@H]2OCCC[C@@H]2N)sc2c(NCc3ccco3)cc(Cl)nc12 [Compound 133, 2-((2S,3S)-3-aminotetrahydro-2H-pyran-2-yl)-5-chloro-N-(furan-2-ylmethyl)-3-methylthieno[3,2-b]pyridin-7-amine] | 30 to 300 | ≤ 30 |
| Cc1c([C@H]2COCC[C@@H]2N)sc2c(NCc3ccccc3)cc(Cl)nc12 [Compound 321, 2-((3R,4S)-4-aminotetrahydro-2H-pyran-3-yl)-N-benzyl-5-chloro-3-methylthieno[3,2-b]pyridin-7-amine] | 30 to 300 | 30 to 300 |
| N[C@@H]1CCCC[C@H]1c1c(Cl)c2nc(Cl)nc(NCc3ccccc3)c2n1C(F)F.N[C@H]1CCCC[C@@H]1c1c(Cl)c2nc(Cl)nc(NCc3ccccc3)c2n1C(F)F (mixture of isomers) [Compound 418, 6-((1S,2S)-2-aminocyclohexyl)-N-benzyl-2,7-dichloro-5-(difluoromethyl)-5H-pyrrolo[3,2-d]pyrimidin-4-amine and 6-((1R,2R)-2-aminocyclohexyl)-N-benzyl-2,7-dichloro-5-(difluoromethyl)-5H-pyrrolo[3,2-d]pyrimidin-4-amine] | 30 to 300 | 30 to 300 |

Further lines, results first:

| IC50 [1] [nM] | IC50 (ATXN3 pre-mRNA) [nM] | Compound |
| --- | --- | --- |
| 30 to 300 | ≤ 30 | CN[C@H]1CCCC[C@@H]1c1sc2c(NCc3cccs3)cc(Cl)nc2c1C#CCCCO [Compound 264, 5-(5-chloro-2-((1S,2S)-2-(methylamino)cyclohexyl)-7-((thiophen-2-ylmethyl)amino)thieno[3,2-b]pyridin-3-yl)pent-4-yn-1-ol] |
| > 1000 | > 1000 | N[C@@H]1CCCCCC[C@@H]1c1cc2nc(Cl)cc(NCc3cccs3)c2s1 [Compound 106, 2-((1S,2R)-2-aminocyclooctyl)-5-chloro-N-(thiophen-2-ylmethyl)thieno[3,2-b]pyridin-7-amine] |
| 30 to 300 | 30 to 300 | Cc1c([C@H]2CCC[C@@H]2N)sc2c(NCc3ccco3)cc(Cl)nc12 [Compound 120, 2-((1S,2S)-2-aminocyclopentyl)-5-chloro-N-(furan-2-ylmethyl)-3-methylthieno[3,2-b]pyridin-7-amine] |
| 30 to 300 | 30 to 300 | Cc1c([C@@H]2CC=CC[C@H]2N)sc2c(NCc3ccco3)cc(Cl)nc12 [Compound 382, 2-((1R,6R)-6-aminocyclohex-3-en-1-yl)-5-chloro-N-(furan-2-ylmethyl)-3-methylthieno[3,2-b]pyridin-7-amine] |
| ≤ 30 | ≤ 30 | 2-((1R,2S,6R)-6-amino-2-methylcyclohex-3-en-1-yl)-3-bromo-5-chloro-N-(thiophen-2-ylmethyl)thieno[3,2-b]pyridin-7-amine and 2-((1S,2R,6S)-6-amino-2-methylcyclohex-3-en-1-yl)-3-bromo-5-chloro-N-(thiophen-2-ylmethyl)thieno[3,2-b]pyridin-7-amine [Compound 402] |
| > 1000 | 300 to 1000 | CC1=C(C)C[C@@H](c2sc3c(NCc4ccco4)cc(Cl)nc3c2Cl)[C@H](N)C1 [Compound 444, 2-((1R,6R)-6-amino-3,4-dimethylcyclohex-3-en-1-yl)-3,5-dichloro-N-(furan-2-ylmethyl)thieno[3,2-b]pyridin-7-amine] |
| 30 to 300 | 30 to 300 | N[C@@H]1CCCC[C@H]1c1sc2c(NCc3ccncc3)cc(Cl)nc2c1Br [Compound 432, 2-((1R,2R)-2-aminocyclohexyl)-3-bromo-5-chloro-N-(pyridin-4-ylmethyl)thieno[3,2-b]pyridin-7-amine] |
| 30 to 300 | 30 to 300 | Cc1c([C@H]2CCCCC[C@@H]2N)sc2c(NCc3cccs3)cc(Cl)nc12 [Compound 81, 2-((1S,2S)-2-aminocycloheptyl)-5-chloro-3-methyl-N-(thiophen-2-ylmethyl)thieno[3,2-b]pyridin-7-amine] |
| 30 to 300 | 30 to 300 | COC(=O)CNc1cc(Cl)nc2c(Br)c([C@H]3CC=CC[C@@H]3N)sc12 [Compound 366, methyl (2-((1S,6S)-6-aminocyclohex-3-en-1-yl)-3-bromo-5-chlorothieno[3,2-b]pyridin-7-yl)glycinate] |
| ≤ 30 | ≤ 30 | 6-((2S,3S)-3-aminotetrahydro-2H-pyran-2-yl)-7-bromo-2-chloro-5-(difluoromethyl)-N-(furan-2-ylmethyl)-5H-pyrrolo[3,2-d]pyrimidin-4-amine [Compound 215] |
| ≤ 30 | ≤ 30 | Cc1c([C@H]2CC=CC[C@@H]2N)sc2c(NCc3ccncc3)nc(Cl)nc12 [Compound 234, 6-((1S,6S)-6-aminocyclohex-3-en-1-yl)-2-chloro-7-methyl-N-(pyridin-4-ylmethyl)thieno[3,2-d]pyrimidin-4-amine] |
